Data on 30 compounds can be found in the supplement of paper PMC10949913.

What all share (conditions): 48 h
For assay [1], the system named is CU-ACC2. Kind of assay: AC50 viability; higher = less potent. The method in brief:
(§1)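 In 1,536-well plates, 500–1,000 cells/well of three adrenocortical carcinoma cell lines in 5 µL medium received 23 nL of each library compound across 11 concentrations. At 48 h, CellTiter-Glo was incubated for 15 minutes at room temperature and luminescence measured. Per-plate normalisation used vehicle and empty-well controls, and only inhibitory or non-responding curve classes were kept when fitting concentration-response curves for AC50 and area under the curve.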

For assay [2], the system named is CU-ACC1. Kind of assay: area under concentration-response curve (viability) (AUC (a.u.)); higher = less active. The method in brief: as §1
Assay [3] has as its system CU-ACC2. Described as above. The method in brief:
as §1

The subject of assay [4] is CU-ACC1. Nature of the assay: AC50 viability; higher = less potent. The method in brief: as §1
For assay [5], the system named is NCI-H295R. Kind of assay: AC50 viability; higher = less potent. The method in brief: as §1
For assay [6], the system named is NCI-H295R. Nature of the assay: area under concentration-response curve (viability) (AUC (a.u.)); higher = less active. The method in brief: as §1

In assay [1], `COc1ccc2c(c1)[C@]1(C[C@H]1c1ccc3c(/C=C/c4ccc(CN5C[C@@H](C)O[C@@H](C)C5)cc4)n[nH]c3c1)C(=O)N2` yielded an AC50 viability of 1.86 µM. For the same compound, the “area under concentration-response curve” value in assay [2] is 384; in assay [3], 344.

`CC#CC(=O)N1CC[C@@H](n2c(=O)n(-c3ccc(Oc4ccccc4)cc3)c3c(N)ncnc32)C1` registered an AC50 viability in assay [1] of 13.2 µM. The results for the “area under concentration-response curve” value in assay [2] and in assay [3] were 425 and 428, respectively.

In assay [1], `CC(C)n1cnc2c(NCCc3ccc(O)cc3)nc(-c3csc4ccccc34)nc21` returned an AC50 viability of 9.34 µM. The “area under concentration-response curve” value was found to be 335 in assay [2] and 325 in assay [3].

Consider `Cc1cccc(-c2[nH]c(C(C)(C)C)nc2-c2ccc3nccnc3c2)n1`, for which, in assay [1], the AC50 viability was 0.263 µM. In addition, the “area under concentration-response curve” value came to 293 in assay [2] and 331 in assay [3].

`O=C(Nc1cc(Cl)cc2c1[nH]c1cnccc12)c1cccnc1` yielded an AC50 viability in assay [1] of 0.182 µM. The “area under concentration-response curve” value in assay [3] is 402.

`CN1CCN(CC1)\C2=N\C3=C(NC4=C2C=CC=C4)C=CC(=C3)Cl`: the AC50 viability in assay [1] came out at 33.2 µM. In addition, the “area under concentration-response curve” value in assay [3] worked out at 398.

For `O=C(CCCCCCNC(=O)c1cnc(N(c2ccccc2)c2ccccc2Cl)nc1)NO`, the AC50 viability in assay [1] was determined as 11.8 µM. The “area under concentration-response curve” value worked out at 464 in assay [2] and 502 in assay [3].

`Fc1ccc(-c2nc(-c3ccccc3F)[nH]c2-c2ccncc2)cc1`: the AC50 viability in assay [1] was determined as 33.2 µM. For the same compound, the “area under concentration-response curve” value in assay [2] amounted to 336; in assay [3], 399.

With `CN1CCN(CCOc2cc(OC3CCOCC3)c3c(Nc4c(Cl)ccc5c4OCO5)ncnc3c2)CC1`, the AC50 viability in assay [1] is 23.5 µM. Also, the “area under concentration-response curve” value in assay [2] was 547; in assay [3], 548.

In assay [1], `C[C@H](NC(=O)[C@@H]1C[C@@H](O)CN1C(=O)[C@@H](NC(=O)COCCCOCCNC(=O)C[C@@H]2\N=C(C3=CC=C(Cl)C=C3)/C4=C(SC(=C4C)C)[N]5C(=NN=C25)C)C(C)(C)C)C6=CC=C(C=C6)C7=C(C)N=CS7` had an AC50 viability of 8.33 µM. For the same compound, the “area under concentration-response curve” value came to 474 in assay [2] and 478 in assay [3].

Take `COc1cc2nc(-c3ccc(N4CCN(C)CC4)cc3)nc(NCCN3CCOCC3)c2cc1OC`: in assay [1], the AC50 viability stood at 3.72 µM. Moreover, the “area under concentration-response curve” value in assay [3] turned out to be 397.

With `CN1CCN(c2cccc(Nc3nc4c(-c5ccc([S+](C)(=O)[O-])cc5)cccn4n3)c2)CC1`, the AC50 viability in assay [1] is 20.9 µM. The “area under concentration-response curve” value in assay [3] amounted to 552.

Regarding `FC1=CC2=C3[N](CCN(CC3=C1)C(=O)N4CCCCC4)C=C2C/5=C(C(=O)NC5=O)\C6=CN=C7C=CC=C[N]67`, the AC50 viability in assay [1] was determined as 18.6 µM. Besides, the “area under concentration-response curve” value in assay [3] is 549.

Regarding `C=CC(=O)Nc1cccc(C)c1Nc1ncc2cc(-c3c(Cl)c(OC)cc(OC)c3Cl)ccc2n1`, the AC50 viability in assay [1] is 6.61 µM. Besides, the “area under concentration-response curve” value in assay [3] worked out at 475.

As to `CCOc1cc2ncc(C#N)c(Nc3ccc(F)c(Cl)c3)c2cc1NC(=O)/C=C/CN(C)C`, in assay [1], the AC50 viability turned out to be 8.33 µM. In addition, the “area under concentration-response curve” value in assay [3] worked out at 419.

Turning to `CC[C@H](CO)Nc1nc(NCc2ccccc2)c2ncn(C(C)C)c2n1`, in assay [1], the AC50 viability was 20.9 µM. Further, the “area under concentration-response curve” value in assay [3] worked out at 582.

The compound `COc1c(Cl)cc2c([nH]c3cnccc32)c1NC(=O)c1cccnc1C` showed an AC50 viability in assay [1] of 7.42 µM. Besides, the “area under concentration-response curve” value in assay [3] is 374.

Take `CN(C)c1ccc2nc3ccc(N(C)C)cc3[s+]c2c1.[Cl-]`: the AC50 viability in assay [1] came to 20.9 µM. In addition, the “area under concentration-response curve” value in assay [3] was 482.

`CC1(C)CC[C@@]2(CC[C@]3(C)[C@@H]([C@@H]2C1)C(=O)\C=C\4[C@@]3(C)CC[C@H]5C(C)(C)C(=O)\C(=C/[C@]45C)C#N)NC(=O)C(C)(F)F` showed an AC50 viability in assay [1] of 23.5 µM. The “area under concentration-response curve” value in assay [3] was found to be 606.

In turn, `N#CCNC(=O)c1ccc(-c2ccnc(Nc3ccc(N4CCOCC4)cc3)n2)cc1` came in with an AC50 viability in assay [1] of 14.8 µM. Moreover, the “area under concentration-response curve” value in assay [3] is 514.

Take `O=C(O)[C@H](Cc1c[nH]c2ccccc12)N1C(=O)c2ccccc2C1=O`: the AC50 viability in assay [1] is 37.2 µM. The “area under concentration-response curve” value in assay [3] was found to be 338.

Consider `Clc1ccc(C(Cn2ccnc2)OCc2ccc(Sc3ccccc3)cc2)c(Cl)c1` (centres undefined), for which the AC50 viability in assay [1] stood at 23.5 µM. Besides, the “area under concentration-response curve” value in assay [3] came out at 528.

Consider `COc1ccc(C[C@@H](C)[C@@H](C)Cc2ccc(OC)c(OC)c2)cc1OC`, for which the AC50 viability in assay [4] was 4.68 µM; in assay [5], 20.9 µM. Besides, the “area under concentration-response curve” value in assay [2] was determined as 452; in assay [6], 480; in assay [3], 536.

For the compound `CC[C@@H](C)Nc1cc(C(=O)NC2CC3CCC(C2)N3c2ccc(C(=O)C3CC3)cn2)c(C)cc1C(N)=O` (some centres undefined), the AC50 viability in assay [4] was determined as 1.32 µM; in assay [5], 0.934 µM. Also, the “area under concentration-response curve” value in assay [2] came to 346; in assay [6], 382; in assay [3], 436.

For `C=C1C(=O)O[C@H]2C[C@H](C)C(/C=C/C(C)=O)=CC[C@H]12`, the AC50 viability in assay [4] came out at 9.34 µM; in assay [5], 18.6 µM. The “area under concentration-response curve” value came to 450 in assay [2], 519 in assay [6] and 529 in assay [3].

With `C[C@H]1O[C@H](C[C@H](O)[C@@H]1O)O[C@H]2[C@@H](O)C[C@@H](O[C@@H]2C)O[C@H]3[C@@H](O)C[C@@H](O[C@@H]3C)O[C@H]4CC[C@@]5(C)[C@H](CC[C@@H]6[C@@H]5C[C@@H](O)[C@]7(C)[C@H](CC[C@]67O)C/8=C/C(=O)OC8)C4`, the AC50 viability in assay [4] amounted to 0.0372 µM; in assay [5] it was 0.118 µM. Also, the “area under concentration-response curve” value in assay [2] stood at 255; in assay [6], 269; in assay [3], 349.

As for `O=C1Nc2ccc(Cl)cc2[C@@](C#CC2CC2)(C(F)(F)F)O1`, the AC50 viability in assay [4] and in assay [5] was 20.9 µM throughout. Moreover, the entries for the “area under concentration-response curve” value in assay [2], in assay [6] and in assay [3] were 490, 468 and 589, respectively.

With `CCN1C(=O)C\N=C/2N\C=C(/N=C12)C3=C(C)N=C(C=C3)C4=NN=C[NH]4`, the AC50 viability in assay [4] was determined as 10.5 µM; in assay [5], 13.2 µM. The “area under concentration-response curve” value came out at 404 in assay [2], 458 in assay [6] and 489 in assay [3].

For the compound `Cc1nnn(C)c1-c1cnc2c3ccc(C(C)(C)O)cc3n([C@H](c3ccccc3)C3CCOCC3)c2c1`, the results for the AC50 viability in assay [4] and in assay [5] were 0.468 µM and 0.0166 µM, respectively. For the same compound, the “area under concentration-response curve” value came out at 416 in assay [2], 425 in assay [6] and 482 in assay [3].

On to `CN(C)c1ccc(Nc2nc(N)n(C(=O)c3c(F)cccc3F)n2)cc1`, for which, in assay [1], the AC50 viability is 16.6 µM. Also, the “area under concentration-response curve” value in assay [3] is 553.
